Experiments:
Broiler chickens [1] = conditions: 0, 5 and 10 mg/kg, 3 to 6 weeks of age; cited from earlier work
Broiler chickens [2] = conditions: 1 ppm for 18 days (28 to 46 days of age); cited from earlier work
Broiler chickens [3] = experiment: Broiler chickens fed zilpaterol daily at 1 ppm from day 8 to day 56 of age (Example 1); type: in vivo, chicken
Text: Broiler chickens were fed zilpaterol every day at 1 ppm from day 8 until day 56 of age. The observed zilpaterol performance response was relatively small. In this study, non significant performance increases in Average Daily Gain (ADG) of 1.3-2.6% and Feed Efficiency (FE) of 0.6%-1.9% were reported.

chickens = conditions: skip a day feeding; 0, 0.2, 0.25, 0.3 mg/kg of live body weight, 20 days from 25 days of age; cited from earlier work
Japanese quails = conditions: 0, 0.2, 0.225, 0.25 mg/kg of live body weight, 21 days, birds at 26 days of age; cited from earlier work
[4] = system: broiler chickens (Cobb 500 strain); experiment: 42 day floor pen study, performance response of broiler chickens fed zilpaterol for 7 or 14 days (Example 2); type: in vivo
Text: “Feed efficiency” refers to: feed consumed (lbs)/total live body weight (lbs). “Adjusted Feed efficiency” refers to feed consumed (lbs)/(total live body weight (lbs)+body weight (lbs) of mortalities).
“Average daily gain” refers to body weight gain (lbs)/number of days.
“Breast weight” refers to breast weight (lbs) at slaughter.
“Carcass yield” refers to carcass weight (lbs)/live body weight (lbs)×100.
“Breast yield” refers to breast weight (lbs)/live body weight (lbs)×100.
Zilpaterol hydrochloride was fed to broiler chickens in a 42 day floor pen study to evaluate the performance response of zilpaterol compared to a non-medicated control group. Six zilpaterol treatment groups consisted of three concentration levels (1, 3, and 5 ppm) and two feeding durations (7 and 14 days) and were administered in feed plus a non medicated control group. A total of 1,680 broiler chickens were allocated by sex to 56 pens with 30 birds/pen, and 4 pens/sex/group (240 birds/group). The 7 day zilpaterol treatments began at day 35 and continued to day 42 of age. The 14 day zilpaterol treatments began at day 28 and continued until day 42 of age.
Post-treatment, there were no statistically significant 2-way or 3-way interactions of sex with duration of treatment and concentration; therefore pooled results over sex are discussed. A summary of the performance response of broiler chickens fed various levels for zilpaterol (0, 1, 3, 5, ppm) and feeding durations (7, 14 days) compared to the control are shown in the following table:
A total of 1,680 broiler chickens (Cobb 500 strain) were allocated by sex to 56 pens (28 pens of males, 28 pens of females) with 30 birds per pen according to a randomized complete block design during a 42 day study. The six zilpaterol treatment groups were in a 2×3 factorial arrangement with two feeding durations of 7 or 14 days (i.e., days 35-42 or 28-42 respectively) and three zilpaterol concentration levels of 1, 3, or 5 ppm plus an un-supplemented (negative) control group. Treatment groups were randomly assigned by sex to pens within each block.

[5] = 1 ppm every day, day 8 until day 56 of age, non significant
[6] = 1 ppm in feed, 7 days (days 35-42)
[7] = 1 ppm in feed, 14 days (days 28-42)
[8] = 3 ppm in feed, 7 days (days 35-42)
[9] = 3 ppm in feed, 14 days (days 28-42)
[10] = 5 ppm in feed, 7 days (days 35-42)
[11] = 5 ppm in feed, 14 days (days 28-42)

For `CC(CCc1ccc(O)cc1)NCC(O)c1ccc(O)cc1` (stereo not drawn) [ractopamine], the “daily body weight gain” value (Broiler chickens [1]) is listed as “not significantly affected”, the feed conversion (Broiler chickens [1]) is listed as “not significantly affected” and the feed intake (Broiler chickens [1]) is listed as “not significantly affected”.

For `CC(C)(C)NCC(O)c1cc(Cl)c(N)c(Cl)c1` (stereo not drawn) [Clenbuterol], the “improvement in average daily gain (ADG) above controls” value (Broiler chickens [2]) is listed as 3.3% and the “improvement in feed efficiency (FE) above controls” value (Broiler chickens [2]) is listed as 3.0%.

With `CC(C)NC1CCn2c(=O)[nH]c3cccc(c32)C1O` (stereo not drawn) [Zilpaterol, 4,5,6,7-tetrahydro-7-hydroxy-6-(isopropylamino) imidazo[4,5,1-jk]-[1]benzazepin-2(1H)-one] the “carcass yield improvement compared to control” value (Broiler chickens [3]; 1 ppm daily for 7 weeks, P<0.01) was 2%, the “performance increase in Average Daily Gain (ADG)” value (Broiler chickens [3]; [5]) was 1.3-2.6% and the “performance increase in Feed Efficiency (FE)” value (Broiler chickens [3]; [5]) was 0.6%-1.9. For the same compound, the feed efficiency (chickens) was “improved”, the feed conversion ratio (Japanese quails) was “improved” and the “weight gain, final body weight, feed intake and carcass, thigh, breast liver and carcass weight” value (Japanese quails) was “not a significant difference”. The “Improvement (%) of Average Daily Gain” value ([4]; 0 vs 1 ppm, 7 days) was 5.4%, the “Improvement (%) of Body Weight Day 42” value ([4]; 0 vs 1 ppm, 7 days) was 2.1% and the “Improvement (%) of Breast Weight” value ([4]; 0 vs 1 ppm, 7 days) was 3.8%. The “Improvement (%) of Carcass Yield” value ([4]; 0 vs 1 ppm, 7 days) was 4.0%, the “Improvement (%) of Feed Efficiency (FE)” value ([4]; 0 vs 1 ppm, 7 days) was 8.0% and the “Improvement (%) of Average Daily Gain” value ([4]; 0 vs 1 ppm, 14 days) was 3.3%. The “Improvement (%) of Body Weight Day 42” value ([4]; 0 vs 1 ppm, 14 days) was 3.9%, the “Improvement (%) of Breast Weight” value ([4]; 0 vs 1 ppm, 14 days) was 4.2% and the “Improvement (%) of Carcass Yield” value ([4]; 0 vs 1 ppm, 14 days) was 1.8%. For the same compound, the “Improvement (%) of Feed Efficiency (FE)” value ([4]; 0 vs 1 ppm, 14 days) was 3.3%, the “Improvement (%) of Average Daily Gain” value ([4]; 0 vs 3 ppm, 7 days) was 18.5% and the “Improvement (%) of Body Weight Day 42” value ([4]; 0 vs 3 ppm, 7 days) was 3.9%. The “Improvement (%) of Breast Weight” value ([4]; 0 vs 3 ppm, 7 days) was 9.1%, the “Improvement (%) of Carcass Yield” value ([4]; 0 vs 3 ppm, 7 days) was 1.7% and the “Improvement (%) of Feed Efficiency (FE)” value ([4]; 0 vs 3 ppm, 7 days) was 25.9%. The “Improvement (%) of Average Daily Gain” value ([4]; 0 vs 3 ppm, 14 days) was 9.2%, the “Improvement (%) of Body Weight Day 42” value ([4]; 0 vs 3 ppm, 14 days) was 5.1% and the “Improvement (%) of Breast Weight” value ([4]; 0 vs 3 ppm, 14 days) was 16.1%. The “Improvement (%) of Carcass Yield” value ([4]; 0 vs 3 ppm, 14 days) was 2.9%, the “Improvement (%) of Feed Efficiency (FE)” value ([4]; 0 vs 3 ppm, 14 days) was 9.7% and the “Improvement (%) of Average Daily Gain” value ([4]; 0 vs 5 ppm, 7 days) was 23.8%. For the same compound, the “Improvement (%) of Body Weight Day 42” value ([4]; 0 vs 5 ppm, 7 days) was 4.1%, the “Improvement (%) of Breast Weight” value ([4]; 0 vs 5 ppm, 7 days) was 12.6% and the “Improvement (%) of Carcass Yield” value ([4]; 0 vs 5 ppm, 7 days) was 3.9%. For the same compound, the “Improvement (%) of Feed Efficiency (FE)” value ([4]; 0 vs 5 ppm, 7 days) was 33.7%, the “Improvement (%) of Average Daily Gain” value ([4]; 0 vs 5 ppm, 14 days) was 13.7% and the “Improvement (%) of Body Weight Day 42” value ([4]; 0 vs 5 ppm, 14 days) was 8.0%. For the same compound, the “Improvement (%) of Breast Weight” value ([4]; 0 vs 5 ppm, 14 days) was 12.6%, the “Improvement (%) of Carcass Yield” value ([4]; 0 vs 5 ppm, 14 days) was 2.8% and the “Improvement (%) of Feed Efficiency (FE)” value ([4]; 0 vs 5 ppm, 14 days) was 9.9%. For the same compound, the “Body Weight Day 42” value [4, 6] was 4.816 lb, the “Breast Weight” value [4, 6] was 1.133 lb and the “Breast Yield” value [4, 6] was 23.91%. For the same compound, the “Carcass Yield” value [4, 6] was 81.45%, the “Feed Efficiency (FE) (Feed/Gain Ratio)” value [4, 6] was 3.831 and the “Body Weight Day 42” value [4, 7] was 4.898 lb. The “Breast Weight” value [4, 7] was 1.138 lb, the “Breast Yield” value [4, 7] was 24.27% and the “Carcass Yield” value [4, 7] was 79.79%. For the same compound, the “Feed Efficiency (FE) (Feed/Gain Ratio)” value [4, 7] was 2.632, the “Body Weight Day 42” value [4, 8] was 4.902 lb and the “Breast Weight” value [4, 8] was 1.191 lb. For the same compound, the “Breast Yield” value [4, 8] was 23.82%, the “Carcass Yield” value [4, 8] was 79.71% and the “Feed Efficiency (FE) (Feed/Gain Ratio)” value [4, 8] was 3.085. The “Body Weight Day 42” value [4, 9] was 4.956 lb, the “Breast Weight” value [4, 9] was 1.268 lb and the “Breast Yield” value [4, 9] was 25.11%. For the same compound, the “Carcass Yield” value [4, 9] was 80.62%, the “Feed Efficiency (FE) (Feed/Gain Ratio)” value [4, 9] was 2.301 and the “Body Weight Day 42” value [4, 10] was 4.910 lb. The “Breast Weight” value [4, 10] was 1.230 lb, the “Breast Yield” value [4, 10] was 26.12% and the “Carcass Yield” value [4, 10] was 81.41%. The “Feed Efficiency (FE) (Feed/Gain Ratio)” value [4, 10] was 2.760, the “Body Weight Day 42” value [4, 11] was 5.093 lb and the “Breast Weight” value [4, 11] was 1.230 lb. The “Breast Yield” value [4, 11] was 24.20%, the “Carcass Yield” value [4, 11] was 80.51% and the “Feed Efficiency (FE) (Feed/Gain Ratio)” value [4, 11] was 2.295. The “body weight increase versus controls” value ([4]; 5 ppm, 14 days (Z5-14d) versus Z0-0d, day 42) was 0.38 lb, the “reduction of time to reach the target market weight” value ([4]; 5 ppm, 14 days, 0.38 lb/0.174 lb/day) was “approximately 2 days” and the “effect on mean mortality rates compared to the control group” value ([4]; any level (1, 3, 5 ppm), either feeding duration (7 or 14 day)) was “no significant effect”. The “breast yield, average of the zilpaterol treatment groups” value ([4]; average over 1, 3, 5 ppm and 7, 14 days, control 25.46%) was 24.57%.

Source: patent US9358238B2, “Method of enhancing the performance of broiler chickens” (Intervet Inc., priority 2012, dated 2016)
